Measurements as given in patent US20100267803A1, “Regulators Of Fat Metabolism As Anti-Cancer Targets” (The Research Foundation of State University Of New York, priority 2008, published 2010).

Tests used:
Type in all cases: cell-based, human
[1] = tested on: ERBB2 mRNA; experiment: qRT-PCR of ERBB2 mRNA in BT474 cells; conditions: shRNA 48 h
Experimental: (§1) Results are shown as percentage of control. (**P=0.03). (c) BT474 cells were transfected with luciferase (control), PBP and NR1D1 shRNAs and co-transfected with GFP. Green cells were counted at intervals and expressed as percentage of control. (Error bars are s.d from 3 individual experiments; *P<0.08, **P<0.03, ***P<0.005). (d) BT474 cells were transfected with luciferase (control), PBP or NR shRNAs for 48 h. Immunofluorescence was performed for cleaved Caspase-3 signal; cell nuclei were stained with Hoechst 33243. (e) Cells from […] were counted for cleaved Caspase-3 signal. (Error bars are s.d from 3 individual experiments; ***P<0.0003). (f) BT474 cells were transfected with luciferase (control) PBP, NR1D1 or PBP and NR1D1 shRNAs together and co-transfected with GFP. Transfected cells were counted at 24 h and 72 h and the 72 h-to-24 h ratio for each shRNA was calculated and expressed as % of the control shRNA (luciferase). (Error bars are s.d from 3 individual experiments; **P=0.01, ***P<0.002). (g) Cells from (f) were counted for cleaved Caspase-3 signal. (Error bars are s.d from 3 individual experiments; ***P<0.0001). (h) ERBB2 mRNA levels of BT474 cells transfected with luciferase (control), PBP or NR1D1 shRNAs for 48 h, analyzed by qRT-PCRs. (Error bars are s.d from 3 individual experiments; ***P=0.0001).
Cell viability—apoptosis assays. […]

[2] = tested on: FASN mRNA; experiment: qRT-PCR of FASN mRNA in BT474 cells; conditions: shRNA or 20 μM GW9662 for 48 h
Experimental: (§2) FIG. 4 NR1D1 and PBP coordinate fatty acid metabolism in breast cancer cells. (a) BT474, MDA-MB-361, MCF-7 and HMEC cells were stained with Oil-Red O lipid and hematoxylin nuclear stains. (b) Fat stores were quantified by BODIPY 493/503 lipid probe staining (Error bars are s.d from 3 individual experiments). (c) FASN, ACLY, ACACA and FADS2 mRNA levels of BT474 cells treated with luciferase (control), PBP or NR1D1 shRNAs, or with vehicle and 20 μM of GW9662 for 48 h, analyzed by qRT-PCRs. (Error bars are s.d from 3 experiments; ***P<0.001, **P=0.005) (d) BT474 cells were transfected with FASN, ACLY and ACACA shRNAs and co-transfected with GFP. Transfected cells were counted at 24 h and 72 h and the 72h-to-24 h ratio for each shRNA was calculated and expressed as % of the control shRNA (luciferase). (Error bars are s.d from 3 individual experiments; **P<0.01, ***P<0.002). (e) BODIPY images and (f) quantification of BT474 cells transfected with luciferase (control), PBP or NR1D1 shRNAs and co-transfected with DsRed (Error bars are s.d from 3 individual experiments; ***P<0.03). Arrows indicate transfected cells.
(§3) Cell viability—apoptosis assays. […] At least 30 fields were imaged per single experiment. […] Immunoblotting. […] PCR reaction was run using standard conditions.

[3] = tested on: ACACA mRNA; experiment: qRT-PCR of ACACA mRNA in BT474 cells; conditions: shRNA or 20 μM GW9662 for 48 h
Experimental: as §2, §3

[4] = tested on: BT474 cells; experiment: Counts of GFP co-transfected BT474 cells (cell death / viability); conditions: shRNA co-transfected with GFP, counted up to 72 h
Experimental: as §1, §2
FIG. 5. (a) MDH1 and ME1 mRNA levels of BT474 cells treated with luciferase (control), PBP or NR1D1 shRNAs for 48 h, analyzed by qRT-PCRs. (Error bars are s.d from 3 experiments; **P<0.002 (b) BT474 and MCF-7 cells were transfected with luciferase (control) MDH1 and ME1 shRNAs (Error bars are s.d from 3 individual experiments; ***P=0.0003). (c) BT474 cells) assayed for cleaved Caspase-3 signal by immunofluorescence 48 h after transfection; cell nuclei were stained with Hoechst 33243. (d) Quantification of cleaved Caspase-3 signal from cells in (c). (Error bars are s.d from 3 individual experiments; ***P<0.005). (e) Enzymes involved in fatty acid synthesis and storage that are regulated by NR1D1 and PBP and their proposed contribution to energy production necessary for survival of ERBB2-positive breast cancer cells.
as §3

Row | Substance | mRNA levels of ERBB2 [1] | FASN transcript level [2] | ACACA transcript level [3] | cell death / viability (cell number of transfected cells) [4]
1 | NR1D1 shRNA: shRNA, mature sequence GGCATGGTGTTACTGTGTA (shRNA) | no effect | reduced | reduced | time-dependent decrease of cell number
2 | PBP shRNA: shRNA, mature sequence CCGAGTTCCTCTTATCCTA (shRNA) | significantly decreased | reduced | reduced | time-dependent decrease of cell number
